Laboratory results from patent US8883827B2, “Azole derivatives as WTN pathway inhibitors” (Oslo University Hospital HF, priority 2009, dated 2014).

Columns and labels:
PTPb(h) = biological target: T1, PTPb(h) (Homo sapiens, UniProt P23467); test: Phosphatase screen; assay type: biochemical; details: 0.1% DMSO control = 100%
T1 construct: purchased Millipore (KinaseProfiler service)

PRAK(h) = biological target: T2, PRAK(h) (Homo sapiens, UniProt Q8IW41); test: Kinase screen; assay type: biochemical; details: 0.1% DMSO control = 100%
T2 construct: purchased Millipore (KinaseProfiler service)

PTPN22(h) = biological target: T3, PTPN22(h) (Homo sapiens, UniProt Q9Y2R2); test: Phosphatase screen; assay type: biochemical; details: 0.1% DMSO control = 100%
T3 construct: purchased Millipore (KinaseProfiler service)

cSRC(h) = biological target: T4, cSRC(h) (Homo sapiens, UniProt P12931); test: Kinase screen; assay type: biochemical; details: 0.1% DMSO control = 100%
T4 construct: purchased Millipore (KinaseProfiler service)

TAK1(h) = biological target: T5, TAK1(h) (Homo sapiens, UniProt O43318); test: Kinase screen; assay type: biochemical; details: 0.1% DMSO control = 100%
T5 construct: purchased Millipore (KinaseProfiler Service)

IKKα(h) = biological target: T6, IKKα(h) (Homo sapiens, UniProt O15111); test: Kinase screen; assay type: biochemical; details: 0.1% DMSO control = 100%
T6 construct: purchased Millipore (KinaseProfiler service)

GRK5(h) = biological target: T7, GRK5(h) (Homo sapiens, UniProt P34947); test: Kinase screen; assay type: biochemical; details: 0.1% DMSO control = 100%
T7 construct: purchased Millipore (KinaseProfiler service)

CDK7/cyclinH/MAT1(h) = biological target: T8, CDK7/cyclinH/MAT1(h) (Homo sapiens, UniProt P50613); test: Kinase screen; assay type: biochemical; details: 0.1% DMSO control = 100%
T8 construct: purchased Millipore (KinaseProfiler service)

EphA5(h) = biological target: T9, EphA5(h) (Homo sapiens, UniProt P54756); test: Kinase screen; assay type: biochemical; details: 0.1% DMSO control = 100%
T9 construct: purchased Millipore (KinaseProfiler service)

Hh (Shh) pathway = test: Shh Light II (Gli1-Luc) reporter assay; details: 1 or 10 μM, 48 h, 50% Shh-CM
Text: 1) a stable reporter line for sonic hedgehog pathway, Shh Light II cells (Glil-Luc-purchased from ATCC and maintained according to suppliers recommendations);

IGF-1R(h) = biological target: T10, IGF-1R(h) (Homo sapiens, UniProt P08069); test: Kinase screen; assay type: biochemical; details: 0.1% DMSO control = 100%
T10 construct: purchased Millipore (KinaseProfiler service)

CDK6/cyclinD3(h) = biological target: T11, CDK6/cyclinD3(h) (Homo sapiens, UniProt Q00534); test: Kinase screen; assay type: biochemical; details: 0.1% DMSO control = 100%
T11 construct: purchased Millipore (KinaseProfiler service)

Rsk1(h) = biological target: T12, Rsk1(h) (Homo sapiens, UniProt Q15418); test: Kinase screen; assay type: biochemical; details: 0.1% DMSO control = 100%
T12 construct: purchased Millipore (KinaseProfiler Service)

SW480 cells = test: Illumina microarray gene expression analysis; assay type: cell-based
Experimental: A microarray analysis using an Illumina® array was performed in triplicate to investigate differential gene expression in cells treated with a Wnt pathway inhibitor. […] In vitro transcription reactions were incubated overnight (14 hr). Labeled cRNA was hybridized to Illumina® Human-6 v3 BeadChips (Illumina, San Diego, Calif.) at 58° C. overnight, according to the Illumina® Whole-Genome Gene Expression Protocol for BeadStation (Doc. #11226030.rev.C, Illumina Inc.). The hybridized BeadChip was stained with streptavidin-Cy3 (Amersham™, PA43001) for visualization and scanned with an Illumina® BeadArray Reader. The scanned images were imported into BeadStudio 3.1.3.0 (Illumina Inc) for extraction and quality control. A criterion of 0.5-fold change in expression was applied to the analysis. […] A list of differentially expressed genes of interest is given below in tables 1 and 2. […] Many known Wnt target genes (column 3) were influenced in treated cells. Some genes were influenced that are also affected in Ls174T colorectal cancer cells expressing an inducible dominant negative form of TCF-4 (column 4) (van de Wetering et al., Mol. Cell. Biol. (2008) 28(8), p. 2732-44). Other influenced genes that are important for cell cycle control and other genes correlated to regulated canonical Wnt signaling are also shown. The degree of modulation (column 5) is an indication of the degree of change between the non-treated and compound No. 1 treated samples.

T3 sequence (Q9Y2R2 whole entry): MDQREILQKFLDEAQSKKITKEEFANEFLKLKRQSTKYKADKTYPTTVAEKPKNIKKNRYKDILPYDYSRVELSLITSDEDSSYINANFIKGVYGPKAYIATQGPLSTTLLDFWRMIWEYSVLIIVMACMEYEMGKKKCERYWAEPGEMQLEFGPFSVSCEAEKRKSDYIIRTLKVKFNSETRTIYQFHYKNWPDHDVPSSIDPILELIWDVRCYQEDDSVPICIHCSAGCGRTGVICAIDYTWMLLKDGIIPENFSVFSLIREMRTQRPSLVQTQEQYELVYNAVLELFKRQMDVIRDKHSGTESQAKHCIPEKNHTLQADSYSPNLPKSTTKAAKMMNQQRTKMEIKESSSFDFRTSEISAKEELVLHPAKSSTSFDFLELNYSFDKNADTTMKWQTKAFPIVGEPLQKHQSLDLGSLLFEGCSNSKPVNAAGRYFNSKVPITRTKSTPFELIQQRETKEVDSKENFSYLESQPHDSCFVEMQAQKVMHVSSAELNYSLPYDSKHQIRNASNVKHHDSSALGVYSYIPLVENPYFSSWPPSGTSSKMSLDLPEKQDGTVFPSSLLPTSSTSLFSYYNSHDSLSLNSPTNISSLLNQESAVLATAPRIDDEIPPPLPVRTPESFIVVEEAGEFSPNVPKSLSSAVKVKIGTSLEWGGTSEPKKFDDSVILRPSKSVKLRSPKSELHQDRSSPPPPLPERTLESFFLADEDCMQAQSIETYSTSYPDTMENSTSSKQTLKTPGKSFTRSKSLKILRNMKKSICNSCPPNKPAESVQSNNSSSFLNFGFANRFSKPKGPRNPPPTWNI
T5 sequence (O43318 1-303 limits assumed): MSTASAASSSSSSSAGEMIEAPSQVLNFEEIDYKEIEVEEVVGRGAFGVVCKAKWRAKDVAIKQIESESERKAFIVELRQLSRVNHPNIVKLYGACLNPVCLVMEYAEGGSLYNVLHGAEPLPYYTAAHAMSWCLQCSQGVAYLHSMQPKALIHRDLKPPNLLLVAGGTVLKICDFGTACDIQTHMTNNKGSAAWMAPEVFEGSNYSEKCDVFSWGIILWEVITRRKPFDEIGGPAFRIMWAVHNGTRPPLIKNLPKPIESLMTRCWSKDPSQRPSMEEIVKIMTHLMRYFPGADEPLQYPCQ
T9 sequence (P54756 25-1037): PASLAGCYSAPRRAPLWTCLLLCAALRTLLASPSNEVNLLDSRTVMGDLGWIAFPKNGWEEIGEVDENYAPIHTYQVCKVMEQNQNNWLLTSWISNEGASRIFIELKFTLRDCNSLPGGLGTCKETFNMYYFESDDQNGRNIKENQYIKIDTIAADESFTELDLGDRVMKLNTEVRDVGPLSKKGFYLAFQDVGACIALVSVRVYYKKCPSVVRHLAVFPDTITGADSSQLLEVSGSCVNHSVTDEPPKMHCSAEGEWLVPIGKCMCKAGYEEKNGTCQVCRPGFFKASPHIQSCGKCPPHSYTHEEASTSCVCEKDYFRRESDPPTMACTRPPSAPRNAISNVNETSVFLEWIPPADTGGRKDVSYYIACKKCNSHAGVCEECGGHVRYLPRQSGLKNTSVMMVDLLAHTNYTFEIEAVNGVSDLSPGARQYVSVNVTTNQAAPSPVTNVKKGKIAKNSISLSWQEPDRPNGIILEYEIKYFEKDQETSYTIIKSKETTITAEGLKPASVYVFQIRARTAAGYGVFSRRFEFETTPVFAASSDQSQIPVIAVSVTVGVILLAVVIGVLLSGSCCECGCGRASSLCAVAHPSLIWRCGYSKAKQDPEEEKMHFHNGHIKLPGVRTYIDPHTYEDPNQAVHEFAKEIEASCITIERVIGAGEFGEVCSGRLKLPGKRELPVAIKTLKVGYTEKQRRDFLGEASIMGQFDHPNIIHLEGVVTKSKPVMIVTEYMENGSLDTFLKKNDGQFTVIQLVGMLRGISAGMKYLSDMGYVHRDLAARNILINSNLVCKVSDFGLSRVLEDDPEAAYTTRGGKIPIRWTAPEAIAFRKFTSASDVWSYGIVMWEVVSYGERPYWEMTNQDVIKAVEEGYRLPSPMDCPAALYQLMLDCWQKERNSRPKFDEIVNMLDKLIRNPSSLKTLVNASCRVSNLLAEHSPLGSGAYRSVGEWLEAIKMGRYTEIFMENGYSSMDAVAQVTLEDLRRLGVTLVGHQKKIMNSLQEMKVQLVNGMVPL
T6 sequence (O15111 whole entry): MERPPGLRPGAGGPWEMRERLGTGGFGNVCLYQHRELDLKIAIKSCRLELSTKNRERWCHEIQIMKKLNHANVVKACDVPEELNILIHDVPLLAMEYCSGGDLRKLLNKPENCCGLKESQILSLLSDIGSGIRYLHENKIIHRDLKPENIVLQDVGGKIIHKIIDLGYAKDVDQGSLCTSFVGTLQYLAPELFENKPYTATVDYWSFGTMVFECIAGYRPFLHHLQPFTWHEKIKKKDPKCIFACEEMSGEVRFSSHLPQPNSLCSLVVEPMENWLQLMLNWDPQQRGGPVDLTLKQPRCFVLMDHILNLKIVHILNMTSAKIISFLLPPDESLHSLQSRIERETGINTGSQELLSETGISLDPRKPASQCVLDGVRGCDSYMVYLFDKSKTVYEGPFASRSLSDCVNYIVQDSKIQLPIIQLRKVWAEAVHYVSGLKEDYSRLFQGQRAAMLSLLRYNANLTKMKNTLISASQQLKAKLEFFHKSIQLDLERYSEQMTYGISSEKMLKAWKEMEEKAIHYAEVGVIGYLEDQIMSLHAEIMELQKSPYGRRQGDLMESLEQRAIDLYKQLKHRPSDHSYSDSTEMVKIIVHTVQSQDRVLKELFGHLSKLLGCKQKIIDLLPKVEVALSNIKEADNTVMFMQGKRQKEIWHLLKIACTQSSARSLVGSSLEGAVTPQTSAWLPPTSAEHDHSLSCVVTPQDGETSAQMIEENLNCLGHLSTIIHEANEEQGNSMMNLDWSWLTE
T4 sequence (P12931 whole entry): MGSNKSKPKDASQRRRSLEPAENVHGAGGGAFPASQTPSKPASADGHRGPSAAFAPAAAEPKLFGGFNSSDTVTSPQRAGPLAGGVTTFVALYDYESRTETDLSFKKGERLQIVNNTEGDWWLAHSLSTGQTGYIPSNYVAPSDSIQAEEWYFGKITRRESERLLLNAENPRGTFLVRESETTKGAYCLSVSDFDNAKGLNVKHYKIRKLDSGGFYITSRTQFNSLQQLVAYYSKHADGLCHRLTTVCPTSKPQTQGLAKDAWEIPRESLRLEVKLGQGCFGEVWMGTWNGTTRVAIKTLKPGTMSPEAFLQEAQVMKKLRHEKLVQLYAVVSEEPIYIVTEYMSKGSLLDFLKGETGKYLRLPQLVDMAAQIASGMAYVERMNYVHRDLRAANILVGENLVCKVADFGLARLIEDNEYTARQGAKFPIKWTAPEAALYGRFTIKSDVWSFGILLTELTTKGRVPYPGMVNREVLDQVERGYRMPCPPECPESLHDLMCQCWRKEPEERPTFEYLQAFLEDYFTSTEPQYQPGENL
T2 sequence (Q8IW41 whole entry): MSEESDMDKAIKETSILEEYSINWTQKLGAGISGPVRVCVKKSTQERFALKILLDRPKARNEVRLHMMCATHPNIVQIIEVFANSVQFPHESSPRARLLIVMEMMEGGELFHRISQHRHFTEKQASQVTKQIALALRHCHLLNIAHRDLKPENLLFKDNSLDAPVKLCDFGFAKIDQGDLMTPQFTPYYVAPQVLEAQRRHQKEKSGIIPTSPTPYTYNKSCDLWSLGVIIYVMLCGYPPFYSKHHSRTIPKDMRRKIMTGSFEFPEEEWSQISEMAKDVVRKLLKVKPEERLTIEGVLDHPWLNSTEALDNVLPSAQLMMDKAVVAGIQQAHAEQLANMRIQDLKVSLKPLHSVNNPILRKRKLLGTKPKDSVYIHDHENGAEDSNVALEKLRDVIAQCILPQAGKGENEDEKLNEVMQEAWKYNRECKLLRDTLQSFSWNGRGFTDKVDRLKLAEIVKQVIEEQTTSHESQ
T7 sequence (P34947 whole entry): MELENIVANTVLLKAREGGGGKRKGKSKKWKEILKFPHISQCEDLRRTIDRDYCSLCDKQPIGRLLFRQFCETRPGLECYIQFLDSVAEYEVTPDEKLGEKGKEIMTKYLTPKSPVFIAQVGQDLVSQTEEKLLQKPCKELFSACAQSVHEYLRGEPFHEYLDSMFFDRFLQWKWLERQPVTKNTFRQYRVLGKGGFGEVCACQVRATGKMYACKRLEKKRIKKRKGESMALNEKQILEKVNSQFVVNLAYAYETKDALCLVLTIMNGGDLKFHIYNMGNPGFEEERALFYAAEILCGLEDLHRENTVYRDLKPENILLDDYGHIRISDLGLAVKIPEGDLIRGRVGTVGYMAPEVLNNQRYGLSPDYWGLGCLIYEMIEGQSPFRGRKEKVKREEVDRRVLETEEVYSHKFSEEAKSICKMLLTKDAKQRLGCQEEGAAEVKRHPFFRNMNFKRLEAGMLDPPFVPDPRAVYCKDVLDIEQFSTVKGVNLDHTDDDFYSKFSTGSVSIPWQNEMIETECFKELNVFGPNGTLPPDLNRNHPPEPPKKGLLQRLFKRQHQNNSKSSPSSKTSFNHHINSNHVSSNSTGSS

COc1ccc(-n2c(SCc3nc(-c4ccc(C)cc4)no3)nnc2-c2ccncc2)cc1 [Compound 1]
activity at 10 µM (PTPb(h)): 106% | activity at 10 µM (PRAK(h)): 55% | activity at 10 µM (PTPN22(h)): 99% | activity at 10 µM (cSRC(h)): 100% | activity at 10 µM (TAK1(h)): 104% | activity at 10 µM (IKKα(h)): 109% | activity at 10 µM (GRK5(h)): 104% | activity at 10 µM (CDK7/cyclinH/MAT1(h)): 108% | activity at 10 µM (EphA5(h)): 99% | effect against the Hh (Shh) pathway (Hh (Shh) pathway): no substantial activating or inhibitory effect | activity at 10 µM (IGF-1R(h)): 149% | activity at 10 µM (CDK6/cyclinD3(h)): 94% | activity at 10 µM (Rsk1(h)): 108% | Degree of modulation: CCAAT/enhancer binding protein (C/EBP), delta (SW480 cells; x at 10 μM and 25 μM): − (moderate down-regulation (log^2 ratio of between −0.5 and −1.0)) | Degree of modulation: Kruppel-like factor 4 (gut) (SW480 cells; x at 10 μM and 25 μM): + (moderate up-regulation (log^2 ratio of between 0.5 and 1.0)) | Degree of modulation: Kruppel-like factor 6 (SW480 cells; x at 10 μM and 25 μM): ++ (strong up-regulation (log^2 ratio of between 1.0 and 1.5)) | Degree of modulation: LY6/PLAUR domain containing 5 (SW480 cells; x at 10 μM and 25 μM): −−− (very strong down-regulation (log^2 ratio of between −1.5 and −2)) | Degree of modulation: LY6/PLAUR domain containing 6B (SW480 cells; x at 10 μM and 25 μM): ++ (strong up-regulation (log^2 ratio of between 1.0 and 1.5)) | Degree of modulation: SPANXA1 (SW480 cells; x at 10 μM and 25 μM): −−− (very strong down-regulation (log^2 ratio of between −1.5 and −2)) | Degree of modulation: SPANXB2 (SW480 cells; x at 10 μM and 25 μM): −−− (very strong down-regulation (log^2 ratio of between −1.5 and −2)) | Degree of modulation: SPANXC (SW480 cells; x at 10 μM and 25 μM): −−− (very strong down-regulation (log^2 ratio of between −1.5 and −2)) | Degree of modulation: SPANXE (SW480 cells; x at 10 μM and 25 μM): −−− (very strong down-regulation (log^2 ratio of between −1.5 and −2)) | Degree of modulation: SRY (sex determining region Y)-box 18 (SW480 cells; x at 10 μM and 25 μM): − (moderate down-regulation (log^2 ratio of between −0.5 and −1.0)) | Degree of modulation: TEA domain family member 4 (SW480 cells; x at 10 μM and 25 μM): − (moderate down-regulation (log^2 ratio of between −0.5 and −1.0)) | Degree of modulation: WNT1 inducible signaling pathway protein 3 (SW480 cells; x at 10 μM and 25 μM): + (moderate up-regulation (log^2 ratio of between 0.5 and 1.0)) | Degree of modulation: alkaline phosphatase, liver/bone/kidney (SW480 cells; x at 10 μM and 25 μM): − (moderate down-regulation (log^2 ratio of between −0.5 and −1.0)) | Degree of modulation: axin 2 (SW480 cells; x at 10 μM and 25 μM): − (moderate down-regulation (log^2 ratio of between −0.5 and −1.0)) | Degree of modulation: dickkopf homolog 1 (Xenopus laevis) (SW480 cells; x at 10 μM and 25 μM): −− (strong down-regulation (log^2 ratio of between −1.0 and −1.5)) | Degree of modulation: frizzled homolog 4 (Drosophila) (SW480 cells; x at 10 μM and 25 μM): − (moderate down-regulation (log^2 ratio of between −0.5 and −1.0)) | Degree of modulation: homeobox B2 (SW480 cells; x at 10 μM and 25 μM): − (moderate down-regulation (log^2 ratio of between −0.5 and −1.0)) | Degree of modulation: homeobox B5 (SW480 cells; x at 10 μM and 25 μM): − (moderate down-regulation (log^2 ratio of between −0.5 and −1.0)) | Degree of modulation: homeobox B7 (SW480 cells; x at 10 μM and 25 μM): − (moderate down-regulation (log^2 ratio of between −0.5 and −1.0)) | Degree of modulation: inhibitor of DNA binding 2, dominant negative helix-loop-helix protein (SW480 cells; x at 10 μM and 25 μM): −− (strong down-regulation (log^2 ratio of between −1.0 and −1.5)) | Degree of modulation: mitogen-activated protein kinase kinase 3 (SW480 cells; x at 10 μM and 25 μM): + (moderate up-regulation (log^2 ratio of between 0.5 and 1.0)) | Degree of modulation: naked cuticle homolog 1 (Drosophila) (SW480 cells; x at 10 μM and 25 μM): − (moderate down-regulation (log^2 ratio of between −0.5 and −1.0)) | Degree of modulation: peroxisome proliferator-activated receptor gamma (SW480 cells; x at 10 μM and 25 μM): ++ (strong up-regulation (log^2 ratio of between 1.0 and 1.5)) | Degree of modulation: prickle homolog 2 (Drosophila) (SW480 cells; x at 10 μM and 25 μM): − (moderate down-regulation (log^2 ratio of between −0.5 and −1.0)) | Degree of modulation: FYN oncogene related to SRC, FGR, YES (SW480 cells; x at 10 μM only): + (moderate up-regulation (log^2 ratio of between 0.5 and 1.0)) | Degree of modulation: T-cell lymphoma invasion and metastasis 1 (SW480 cells; x at 10 μM only): + (moderate up-regulation (log^2 ratio of between 0.5 and 1.0)) | Degree of modulation: catenin (cadherin-associated protein), alpha-like 1 (SW480 cells; x at 10 μM only): − (moderate down-regulation (log^2 ratio of between −0.5 and −1.0)) | Degree of modulation: gastrin (SW480 cells; x at 10 μM only): − (moderate down-regulation (log^2 ratio of between −0.5 and −1.0)) | Degree of modulation: low density lipoprotein receptor-related protein 5 (SW480 cells; x at 10 μM only): + (moderate up-regulation (log^2 ratio of between 0.5 and 1.0)) | Degree of modulation: mitogen-activated protein kinase kinase kinase 1 (SW480 cells; x at 10 μM only): + (moderate up-regulation (log^2 ratio of between 0.5 and 1.0)) | Degree of modulation: notum pectinacetylesterase homolog (Drosophila) (SW480 cells; x at 10 μM only): ++ (strong up-regulation (log^2 ratio of between 1.0 and 1.5)) | Degree of modulation: secreted frizzled-related protein 5 (SW480 cells; x at 10 μM only): + (moderate up-regulation (log^2 ratio of between 0.5 and 1.0)) | Degree of modulation: slowmo homolog 1 (Drosophila) (SW480 cells; x at 10 μM only): − (moderate down-regulation (log^2 ratio of between −0.5 and −1.0)) | Degree of modulation: transmembrane 4 L six family member 5 (SW480 cells; x at 10 μM only): ++ (strong up-regulation (log^2 ratio of between 1.0 and 1.5)) | Degree of modulation: A kinase (PRKA) anchor protein 1 (SW480 cells; x at 25 μM only): + (moderate up-regulation (log^2 ratio of between 0.5 and 1.0))
